{"source": "ChEMBL document CHEMBL5212743", "about": "“Selectivity Literature for EUbOPEN Chemogenomics Library wave 3” (2023)", "key": {"Matrilysin": {"biological_target": "T1, Matrilysin (Homo sapiens, UniProt P09237)", "T1 sequence (P09237 whole entry)": "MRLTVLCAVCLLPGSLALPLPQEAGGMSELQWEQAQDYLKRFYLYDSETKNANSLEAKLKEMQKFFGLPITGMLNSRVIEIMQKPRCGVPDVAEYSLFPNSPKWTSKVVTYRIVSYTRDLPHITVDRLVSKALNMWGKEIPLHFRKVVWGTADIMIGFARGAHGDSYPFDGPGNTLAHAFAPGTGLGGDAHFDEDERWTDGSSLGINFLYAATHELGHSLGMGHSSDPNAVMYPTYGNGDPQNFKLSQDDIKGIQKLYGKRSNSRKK", "test": "Selectivity interaction (MMPs panel (Panlabs panel, Bayer)) EUB0000725a MMP7"}, "Interstitial collagenase": {"biological_target": "Interstitial collagenase (Homo sapiens, UniProt P03956)", "test": "Selectivity interaction (MMPs panel (Panlabs panel, Bayer)) EUB0000725a MMP1"}, "[1]": {"biological_target": "Uncharacterized serine/threonine-protein kinase SBK3 (Homo sapiens) (UniProt P0C264)", "test": "Selectivity interaction (KinomeScan (DiscoverX)) EUB0000725a SBK3", "conditions": "at 10 µM"}, "[2]": {"biological_target": "Matrix metalloproteinase-14 (Homo sapiens, UniProt P50281)", "test": "Selectivity interaction (MMPs panel (Panlabs panel, Bayer)) EUB0000725a MMP14"}, "[3]": {"biological_target": "Matrix metalloproteinase-9 (Homo sapiens, UniProt P14780)", "test": "Selectivity interaction (MMPs panel (Panlabs panel, Bayer)) EUB0000725a MMP9"}, "Neutrophil collagenase": {"biological_target": "Neutrophil collagenase (Homo sapiens, UniProt P22894)", "sequence (P22894 whole entry)": "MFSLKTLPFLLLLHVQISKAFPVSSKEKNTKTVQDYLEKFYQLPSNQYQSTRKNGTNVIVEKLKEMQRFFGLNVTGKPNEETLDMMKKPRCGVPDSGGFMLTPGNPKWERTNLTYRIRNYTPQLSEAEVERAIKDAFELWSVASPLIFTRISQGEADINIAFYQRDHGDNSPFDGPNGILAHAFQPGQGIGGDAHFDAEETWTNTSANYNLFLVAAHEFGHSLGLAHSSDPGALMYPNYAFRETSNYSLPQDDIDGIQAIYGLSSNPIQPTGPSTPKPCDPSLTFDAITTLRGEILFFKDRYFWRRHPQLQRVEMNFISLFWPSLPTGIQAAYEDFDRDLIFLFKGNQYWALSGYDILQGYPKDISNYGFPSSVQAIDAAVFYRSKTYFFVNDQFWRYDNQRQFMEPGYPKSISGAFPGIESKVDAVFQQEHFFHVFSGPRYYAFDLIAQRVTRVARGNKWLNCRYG", "test": "Selectivity interaction (MMPs panel (Panlabs panel, Bayer)) EUB0000725a MMP8"}, "Collagenase 3": {"biological_target": "Collagenase 3 (Homo sapiens, UniProt P45452)", "test": "Selectivity interaction (MMPs panel (Panlabs panel, Bayer)) EUB0000725a MMP13"}, "D(2) dopamine receptor": {"biological_target": "D(2) dopamine receptor (Homo sapiens, UniProt P14416)", "sequence (P14416 whole entry)": "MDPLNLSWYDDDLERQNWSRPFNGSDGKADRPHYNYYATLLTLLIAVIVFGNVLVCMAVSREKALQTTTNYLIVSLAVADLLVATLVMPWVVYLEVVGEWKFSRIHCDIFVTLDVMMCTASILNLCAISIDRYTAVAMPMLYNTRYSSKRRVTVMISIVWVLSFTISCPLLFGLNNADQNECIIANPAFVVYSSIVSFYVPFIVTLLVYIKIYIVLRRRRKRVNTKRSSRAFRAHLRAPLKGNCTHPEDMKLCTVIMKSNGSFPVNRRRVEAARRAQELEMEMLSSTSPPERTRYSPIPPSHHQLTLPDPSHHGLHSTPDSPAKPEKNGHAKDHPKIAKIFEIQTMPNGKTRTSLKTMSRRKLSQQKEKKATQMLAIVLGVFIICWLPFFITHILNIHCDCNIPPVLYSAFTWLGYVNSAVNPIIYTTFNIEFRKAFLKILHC", "test": "Selectivity interaction (GPCR panel (PDSP screen)) EUB0000725a DRD2", "conditions": "at 10 µM"}, "Stromelysin-1": {"biological_target": "Stromelysin-1 (Homo sapiens, UniProt P08254)", "sequence (P08254 whole entry)": "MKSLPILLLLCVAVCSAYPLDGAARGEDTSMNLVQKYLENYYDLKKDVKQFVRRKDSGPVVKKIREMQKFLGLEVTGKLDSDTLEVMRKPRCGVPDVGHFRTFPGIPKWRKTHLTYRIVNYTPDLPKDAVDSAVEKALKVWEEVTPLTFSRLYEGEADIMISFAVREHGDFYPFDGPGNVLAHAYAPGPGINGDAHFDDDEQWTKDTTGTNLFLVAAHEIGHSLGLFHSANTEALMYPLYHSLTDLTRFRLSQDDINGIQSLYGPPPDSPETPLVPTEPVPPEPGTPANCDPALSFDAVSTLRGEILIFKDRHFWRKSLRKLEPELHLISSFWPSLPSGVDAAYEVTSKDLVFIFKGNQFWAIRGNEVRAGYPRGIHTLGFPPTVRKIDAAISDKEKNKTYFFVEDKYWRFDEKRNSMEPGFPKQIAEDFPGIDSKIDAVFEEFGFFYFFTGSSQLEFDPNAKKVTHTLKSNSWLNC", "test": "Selectivity interaction (MMPs panel (Panlabs panel, Bayer)) EUB0000725a MMP3"}, "[4]": {"biological_target": "Phosphatidylinositol 4,5-bisphosphate 3-kinase catalytic subunit alpha isoform (Homo sapiens, UniProt P42336)", "test": "Selectivity interaction (KinomeScan (DiscoverX)) EUB0000725a PIK3CA", "conditions": "at 10 µM"}, "[5]": {"biological_target": "72 kDa type IV collagenase (Homo sapiens, UniProt P08253)", "sequence (P08253 whole entry)": "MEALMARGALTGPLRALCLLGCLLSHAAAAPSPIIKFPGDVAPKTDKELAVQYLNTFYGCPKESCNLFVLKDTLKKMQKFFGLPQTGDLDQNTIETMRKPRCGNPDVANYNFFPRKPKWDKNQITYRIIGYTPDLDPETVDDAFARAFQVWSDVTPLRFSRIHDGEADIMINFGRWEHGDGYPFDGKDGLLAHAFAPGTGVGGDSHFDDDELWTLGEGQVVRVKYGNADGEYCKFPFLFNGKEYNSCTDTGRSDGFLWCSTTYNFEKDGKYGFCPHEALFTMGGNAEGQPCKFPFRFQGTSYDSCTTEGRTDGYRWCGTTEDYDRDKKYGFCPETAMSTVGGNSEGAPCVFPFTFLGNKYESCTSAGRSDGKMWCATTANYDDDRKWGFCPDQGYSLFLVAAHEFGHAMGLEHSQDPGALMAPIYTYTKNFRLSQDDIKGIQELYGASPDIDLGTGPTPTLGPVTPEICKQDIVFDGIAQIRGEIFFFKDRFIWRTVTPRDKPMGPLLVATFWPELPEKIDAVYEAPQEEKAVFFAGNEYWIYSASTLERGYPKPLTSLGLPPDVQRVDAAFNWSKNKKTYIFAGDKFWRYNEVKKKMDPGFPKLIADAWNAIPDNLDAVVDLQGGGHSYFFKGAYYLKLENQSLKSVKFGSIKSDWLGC", "test": "Selectivity interaction (MMPs panel (Panlabs panel, Bayer)) EUB0000725a MMP2"}, "[6]": {"biological_target": "Macrophage metalloelastase (Homo sapiens, UniProt P39900)", "test": "Selectivity interaction (MMPs panel (Panlabs panel, Bayer)) EUB0000725a MMP12"}, "[7]": {"biological_target": "T2, Gamma-aminobutyric acid receptor subunit alpha-1 (Homo sapiens, UniProt P14867)", "T2 sequence (P14867 whole entry)": "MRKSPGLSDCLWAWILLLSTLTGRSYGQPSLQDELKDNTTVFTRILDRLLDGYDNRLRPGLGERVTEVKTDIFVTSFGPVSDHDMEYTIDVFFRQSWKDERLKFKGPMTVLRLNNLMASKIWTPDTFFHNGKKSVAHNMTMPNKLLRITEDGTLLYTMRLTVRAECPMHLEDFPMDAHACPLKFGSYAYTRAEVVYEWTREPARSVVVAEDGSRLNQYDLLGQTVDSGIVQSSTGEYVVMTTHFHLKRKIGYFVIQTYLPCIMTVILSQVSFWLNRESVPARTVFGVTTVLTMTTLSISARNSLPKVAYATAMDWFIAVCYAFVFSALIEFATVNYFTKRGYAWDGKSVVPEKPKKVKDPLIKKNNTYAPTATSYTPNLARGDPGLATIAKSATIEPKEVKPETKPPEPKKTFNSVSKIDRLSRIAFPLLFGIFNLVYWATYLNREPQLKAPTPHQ", "test": "Selectivity interaction (GPCR panel (PDSP screen)) EUB0000587a GABRA1"}, "[8]": {"biological_target": "T2, Gamma-aminobutyric acid receptor subunit alpha-1", "test": "Selectivity interaction (GPCR panel (PDSP screen)) EUB0000302b GABRA1"}, "Kallikrein-7": {"biological_target": "Kallikrein-7 (Homo sapiens, UniProt P49862)", "test": "Selectivity interaction (Serine protease panel) EUB0000735a KLK7"}, "[9]": {"biological_target": "Chymotrypsin-like elastase family member 1 (Homo sapiens, UniProt Q9UNI1)", "sequence (Q9UNI1 whole entry)": "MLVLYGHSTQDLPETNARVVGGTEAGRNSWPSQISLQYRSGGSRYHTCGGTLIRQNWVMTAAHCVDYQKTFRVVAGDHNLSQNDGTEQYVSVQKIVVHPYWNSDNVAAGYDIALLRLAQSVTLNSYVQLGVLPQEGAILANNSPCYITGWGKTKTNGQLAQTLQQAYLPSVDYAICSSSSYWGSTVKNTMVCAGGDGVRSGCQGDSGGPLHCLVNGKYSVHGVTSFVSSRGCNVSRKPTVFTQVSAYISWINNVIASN", "test": "Selectivity interaction (Serine protease panel) EUB0000735a CELA1"}, "Cathepsin G": {"biological_target": "Cathepsin G (Homo sapiens, UniProt P08311)", "test": "Selectivity interaction (Serine protease panel) EUB0000735a CTSG"}, "Kallikrein-12": {"biological_target": "Kallikrein-12 (Homo sapiens, UniProt Q9UKR0)", "test": "Selectivity interaction (Serine protease panel) EUB0000735a KLK12"}, "Plasminogen": {"biological_target": "Plasminogen (Homo sapiens, UniProt P00747)", "test": "Selectivity interaction (Serine protease panel) EUB0000735a PLG"}, "Coagulation factor XI": {"biological_target": "Coagulation factor XI (Homo sapiens, UniProt P03951)", "sequence (P03951 19-387 limits assumed)": "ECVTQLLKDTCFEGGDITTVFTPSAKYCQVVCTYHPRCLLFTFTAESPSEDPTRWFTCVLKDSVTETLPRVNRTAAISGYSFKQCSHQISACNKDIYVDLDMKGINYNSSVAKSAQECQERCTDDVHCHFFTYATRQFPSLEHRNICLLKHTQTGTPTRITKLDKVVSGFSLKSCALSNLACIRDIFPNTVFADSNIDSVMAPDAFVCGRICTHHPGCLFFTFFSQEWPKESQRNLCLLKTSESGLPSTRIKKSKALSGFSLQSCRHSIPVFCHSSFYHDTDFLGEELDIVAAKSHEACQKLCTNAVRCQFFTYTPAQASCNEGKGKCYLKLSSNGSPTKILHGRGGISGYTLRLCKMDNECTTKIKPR", "sequence (P03951 388-625 limits assumed)": "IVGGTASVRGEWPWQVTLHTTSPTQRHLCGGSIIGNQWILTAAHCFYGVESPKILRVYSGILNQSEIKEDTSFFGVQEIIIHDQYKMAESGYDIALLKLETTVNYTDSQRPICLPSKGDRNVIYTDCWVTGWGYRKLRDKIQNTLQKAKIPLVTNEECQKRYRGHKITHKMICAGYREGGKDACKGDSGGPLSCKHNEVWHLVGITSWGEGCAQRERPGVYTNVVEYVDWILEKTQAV", "test": "Selectivity interaction (Serine protease panel) EUB0000735a F11"}, "[10]": {"biological_target": "cAMP-dependent protein kinase catalytic subunit beta (Homo sapiens) (UniProt P22694)", "test": "Selectivity interaction (KinomeScan (DiscoverX)) EUB0000735a PRKACB", "conditions": "at 1 µM"}, "Dipeptidyl peptidase 2": {"biological_target": "Dipeptidyl peptidase 2 (Homo sapiens, UniProt Q9UHL4)", "test": "Selectivity interaction (Serine protease panel) EUB0000735a DPP7"}, "Chymase": {"biological_target": "Chymase (Homo sapiens, UniProt P23946)", "sequence (P23946 whole entry)": "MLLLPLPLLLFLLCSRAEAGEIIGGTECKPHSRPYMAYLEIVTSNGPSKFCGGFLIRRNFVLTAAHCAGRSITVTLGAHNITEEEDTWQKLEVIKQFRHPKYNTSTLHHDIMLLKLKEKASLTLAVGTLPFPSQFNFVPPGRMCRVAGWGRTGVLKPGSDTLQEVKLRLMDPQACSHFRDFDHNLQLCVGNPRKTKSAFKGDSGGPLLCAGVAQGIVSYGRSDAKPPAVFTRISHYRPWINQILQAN", "test": "Selectivity interaction (Serine protease panel) EUB0000735a CMA1"}, "Serine protease 1": {"biological_target": "Serine protease 1 (Homo sapiens, UniProt P07477)", "sequence (P07477 whole entry)": "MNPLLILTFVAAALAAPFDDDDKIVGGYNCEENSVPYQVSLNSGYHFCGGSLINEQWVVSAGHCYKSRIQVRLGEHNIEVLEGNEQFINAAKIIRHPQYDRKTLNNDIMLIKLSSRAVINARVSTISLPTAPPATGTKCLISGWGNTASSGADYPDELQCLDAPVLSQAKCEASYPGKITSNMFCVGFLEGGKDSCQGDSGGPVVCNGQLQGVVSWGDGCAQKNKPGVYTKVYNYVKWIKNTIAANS", "test": "Selectivity interaction (Serine protease panel) EUB0000735a PRSS1"}, "[11]": {"biological_target": "cGMP-dependent protein kinase 1 (Homo sapiens) (UniProt Q13976)", "test": "Selectivity interaction (KinomeScan (DiscoverX)) EUB0000735a PRKG1", "conditions": "at 1 µM"}, "Coagulation factor VII": {"biological_target": "Coagulation factor VII (Homo sapiens, UniProt P08709)", "test": "Selectivity interaction (Serine protease panel) EUB0000735a F7"}, "Plasma kallikrein": {"biological_target": "Plasma kallikrein (Homo sapiens, UniProt P03952)", "test": "Selectivity interaction (Serine protease panel) EUB0000735a KLKB1"}, "Prolyl endopeptidase FAP": {"biological_target": "Prolyl endopeptidase FAP (Homo sapiens, UniProt Q12884)", "test": "Selectivity interaction (Serine protease panel) EUB0000735a FAP"}, "Kallikrein-5": {"biological_target": "Kallikrein-5 (Homo sapiens, UniProt Q9Y337)", "test": "Selectivity interaction (Serine protease panel) EUB0000735a KLK5"}, "Coagulation factor IX": {"biological_target": "Coagulation factor IX (Homo sapiens, UniProt P00740)", "test": "Selectivity interaction (Serine protease panel) EUB0000735a F9"}, "Chymotrypsin-C": {"biological_target": "Chymotrypsin-C (Homo sapiens, UniProt Q99895)", "test": "Selectivity interaction (Serine protease panel) EUB0000735a CTRC"}, "Dipeptidyl peptidase 4": {"biological_target": "Dipeptidyl peptidase 4 (Homo sapiens, UniProt P27487)", "sequence (P27487 whole entry)": "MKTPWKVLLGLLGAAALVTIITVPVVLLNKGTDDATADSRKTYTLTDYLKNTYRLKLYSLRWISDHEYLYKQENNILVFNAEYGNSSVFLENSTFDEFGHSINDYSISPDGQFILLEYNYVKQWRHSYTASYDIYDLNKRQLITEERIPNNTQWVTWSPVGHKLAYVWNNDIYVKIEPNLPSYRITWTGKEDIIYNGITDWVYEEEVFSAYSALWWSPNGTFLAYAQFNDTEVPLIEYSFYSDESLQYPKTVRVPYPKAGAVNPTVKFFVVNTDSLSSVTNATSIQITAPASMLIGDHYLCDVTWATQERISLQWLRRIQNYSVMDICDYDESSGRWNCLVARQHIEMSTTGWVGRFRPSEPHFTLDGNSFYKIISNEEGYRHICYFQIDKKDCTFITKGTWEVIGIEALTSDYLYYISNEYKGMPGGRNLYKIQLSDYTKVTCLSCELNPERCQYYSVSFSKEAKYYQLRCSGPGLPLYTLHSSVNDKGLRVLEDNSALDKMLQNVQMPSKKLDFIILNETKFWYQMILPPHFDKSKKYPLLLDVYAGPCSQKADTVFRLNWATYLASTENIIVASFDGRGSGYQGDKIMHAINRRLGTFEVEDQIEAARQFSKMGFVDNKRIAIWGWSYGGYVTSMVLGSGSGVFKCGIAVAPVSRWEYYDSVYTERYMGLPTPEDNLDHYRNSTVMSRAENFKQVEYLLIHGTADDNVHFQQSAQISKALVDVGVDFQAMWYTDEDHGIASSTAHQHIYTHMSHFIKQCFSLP", "test": "Selectivity interaction (Serine protease panel) EUB0000735a DPP4"}, "Kallikrein-4": {"biological_target": "Kallikrein-4 (Homo sapiens, UniProt Q9Y5K2)", "sequence (Q9Y5K2 whole entry)": "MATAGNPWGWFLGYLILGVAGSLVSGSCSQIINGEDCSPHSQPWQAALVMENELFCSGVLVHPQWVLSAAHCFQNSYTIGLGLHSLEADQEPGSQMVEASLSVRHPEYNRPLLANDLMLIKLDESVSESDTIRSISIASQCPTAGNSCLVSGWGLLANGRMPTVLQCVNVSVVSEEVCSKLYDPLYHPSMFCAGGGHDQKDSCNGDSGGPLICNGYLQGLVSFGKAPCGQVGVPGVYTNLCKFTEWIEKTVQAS", "test": "Selectivity interaction (Serine protease panel) EUB0000735a KLK4"}, "Kallikrein-1": {"biological_target": "Kallikrein-1 (Homo sapiens, UniProt P06870)", "sequence (P06870 whole entry)": "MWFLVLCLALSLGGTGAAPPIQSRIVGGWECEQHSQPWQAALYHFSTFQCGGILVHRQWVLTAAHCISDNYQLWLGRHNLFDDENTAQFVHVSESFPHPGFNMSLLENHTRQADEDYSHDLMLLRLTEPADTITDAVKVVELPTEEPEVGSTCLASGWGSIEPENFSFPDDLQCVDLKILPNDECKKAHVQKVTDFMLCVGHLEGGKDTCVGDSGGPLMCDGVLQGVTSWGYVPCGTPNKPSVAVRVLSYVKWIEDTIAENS", "test": "Selectivity interaction (Serine protease panel) EUB0000735a KLK1"}}, "data": [{"smiles": "O=C(O)[C@@H]1[C@@H](Cn2nnc3ccccc3c2=O)CC[C@H]1C(=O)c1ccc(OCCC2CCOCC2)cc1", "note": "[BAY-694]", "values": [{"measurement": "IC50", "setting": "Matrilysin", "result": "> 10", "unit": "µM"}, {"measurement": "IC50", "setting": "Interstitial collagenase", "result": "> 10", "unit": "µM"}, {"measurement": "% of control", "setting": "[1]", "result": 43, "unit": "%"}, {"measurement": "IC50", "setting": "[2]", "result": "> 10", "unit": "µM"}, {"measurement": "IC50", "setting": "[3]", "result": "> 10", "unit": "µM"}, {"measurement": "IC50", "setting": "Neutrophil collagenase", "result": "> 10", "unit": "µM"}, {"measurement": "IC50", "setting": "Collagenase 3", "result": "> 10", "unit": "µM"}, {"measurement": "% of inhibition", "setting": "D(2) dopamine receptor", "result": 30, "unit": "%"}, {"measurement": "IC50", "setting": "Stromelysin-1", "result": "> 10", "unit": "µM"}, {"measurement": "% of control", "setting": "[4]", "result": 34, "unit": "%"}, {"measurement": "IC50", "setting": "[5]", "result": "> 10", "unit": "µM"}, {"measurement": "IC50", "setting": "[6]", "result": "> 10", "unit": "µM"}]}, {"smiles": "CCNC(=O)c1cc2c(N3CCOC[C@@H]3C)ccnc2n1C", "values": [{"measurement": "Ki", "setting": "[7]", "result": 0.224, "unit": "µM"}]}, {"smiles": "CCNC(=O)c1cc2c(N3CCOC[C@@H]3C)ccnc2[nH]1", "values": [{"measurement": "Ki", "setting": "[8]", "result": 1.53, "unit": "µM"}]}, {"smiles": "CC(=O)C1=C(C)N(c2cccc(C(F)(F)F)c2)C(=O)N[C@@H]1c1ccc(C#N)nc1", "note": "[BAY-678]", "values": [{"measurement": "IC50", "setting": "Kallikrein-7", "result": "> 30", "unit": "µM"}, {"measurement": "IC50", "setting": "[9]", "result": "> 30", "unit": "µM"}, {"measurement": "IC50", "setting": "Cathepsin G", "result": "> 30", "unit": "µM"}, {"measurement": "IC50", "setting": "Kallikrein-12", "result": "> 30", "unit": "µM"}, {"measurement": "IC50", "setting": "Plasminogen", "result": "> 30", "unit": "µM"}, {"measurement": "IC50", "setting": "Coagulation factor XI", "result": "> 30", "unit": "µM"}, {"measurement": "% of control", "setting": "[10]", "result": 48.7, "unit": "%"}, {"measurement": "IC50", "setting": "Dipeptidyl peptidase 2", "result": "> 30", "unit": "µM"}, {"measurement": "IC50", "setting": "Chymase", "result": "> 30", "unit": "µM"}, {"measurement": "IC50", "setting": "Serine protease 1", "result": "> 30", "unit": "µM"}, {"measurement": "% of control", "setting": "[11]", "result": 45.5, "unit": "%"}, {"measurement": "IC50", "setting": "Coagulation factor VII", "result": "> 30", "unit": "µM"}, {"measurement": "IC50", "setting": "Plasma kallikrein", "result": "> 30", "unit": "µM"}, {"measurement": "IC50", "setting": "Prolyl endopeptidase FAP", "result": "> 30", "unit": "µM"}, {"measurement": "IC50", "setting": "Kallikrein-5", "result": "> 30", "unit": "µM"}, {"measurement": "IC50", "setting": "Coagulation factor IX", "result": "> 30", "unit": "µM"}, {"measurement": "IC50", "setting": "Chymotrypsin-C", "result": "> 30", "unit": "µM"}, {"measurement": "IC50", "setting": "Dipeptidyl peptidase 4", "result": "> 30", "unit": "µM"}, {"measurement": "IC50", "setting": "Kallikrein-4", "result": "> 30", "unit": "µM"}, {"measurement": "IC50", "setting": "Kallikrein-1", "result": "> 30", "unit": "µM"}]}]}
